Data published in US9201014B2, “Development of photostable near-IR cyanine dyes for in vivo imaging” (National University of Singapore, priority 2010, dated 2015).

Assays:
[1] = Primary screening of photostability of the CyNA library (time-course fluorescence, 8 h); assay type: physicochemical; parameters: F/Fo, fluorescent intensity at 8 hours vs 0 hours: unit: %; details: 10 μM in HEPES 100 mM pH 7.4, 2% DMSO
How it was run: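 CyNA dyes at 10 μM in 100 mM HEPES pH 7.4 with 2% DMSO irradiated by xenon lamp for 8 h. Fluorescence (ex/em 790-820 nm) read every 10 min; stability given as F8h/Fo.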

[2] = Absorbance and fluorescence maximum wavelengths and quantum yields of the CyNA library; assay type: physicochemical; details: for λabs, absorbance maximum wavelength / λem, fluorescence maximum wavelength: CyNA library; for φ, quantum yield: in DMSO, Cardiogreen as standard
How it was run: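 Absorption and emission maxima and quantum yields of the 80-member amine-derivatized CyNA library were measured on a plate spectrophotometer.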

Row | SMILES | F/Fo, fluorescent intensity at 8 hours vs 0 hours [1] | max RFU, maximum relative fluorescence units [1] | λabs, absorbance maximum wavelength [2] [nm] | λem, fluorescence maximum wavelength [2] [nm] | φ, quantum yield [2]
1 | CCCN1/C(=C/C=C2\CCCC(/C=C/C3=[N+](CCC)c4ccccc4C3(C)C)=C2N(CCc2ccccc2Cl)C(C)=O)C(C)(C)c2ccccc21 [CyNA-480] | 51 | 154.8 | 803 | 817 | 0.06
2 | CCCN1/C(=C/C=C2\CCCC(/C=C/C3=[N+](CCC)c4ccccc4C3(C)C)=C2N(CC(C)C)C(C)=O)C(C)(C)c2ccccc21 [CyNA-487] | 30 | 45.3 | 806 | 823 | 0.04
3 | CCCN1/C(=C/C=C2\CCCC(/C=C/C3=[N+](CCC)c4ccccc4C3(C)C)=C2N(Cc2ccc(Cl)cc2Cl)C(C)=O)C(C)(C)c2ccccc21 [CyNA-531] | 100 | 187.5 | 804 | 820 | 0.08
4 | CCCN1/C(=C/C=C2\CCCC(/C=C/C3=[N+](CCC)c4ccccc4C3(C)C)=C2N(Cc2cccc3ccccc23)C(C)=O)C(C)(C)c2ccccc21 [CyNA-542] | 74 | 442.7 | 805 | 821 | 0.08
5 | CCCN1/C(=C/C=C2\CCCC(/C=C/C3=[N+](CCC)c4ccccc4C3(C)C)=C2N(CC(c2ccccc2)c2ccccc2)C(C)=O)C(C)(C)c2ccccc21 [CyNA-548] |  | 67.6 | 804 | 820 | 0.04
6 | CCCN1/C(=C/C=C2\CCCC(/C=C/C3=[N+](CCC)c4ccccc4C3(C)C)=C2N(Cc2ccc(Cl)c(Cl)c2)C(C)=O)C(C)(C)c2ccccc21 [CyNA-565] | 96 | 335.5 | 805 | 821 | 0.09
7 | CCCCCCCCCCCN(C(C)=O)C1=C(/C=C/C2=[N+](CCC)c3ccccc3C2(C)C)CCC/C1=C\C=C1\N(CCC)c2ccccc2C1(C)C [CyNA-567] | 100 | 279.2 | 805 | 820 | 0.14
8 | CCCN1/C(=C/C=C2\CCCC(/C=C/C3=[N+](CCC)c4ccccc4C3(C)C)=C2N(CC(C)CC)C(C)=O)C(C)(C)c2ccccc21 (stereo not shown) [CyNA-574] | 38 | 321.1 | 803 | 818 | 0.06
9 | CCCN1/C(=C/C=C2\CCCC(/C=C/C3=[N+](CCC)c4ccccc4C3(C)C)=C2N(CCc2ccccc2-c2ccccc2)C(C)=O)C(C)(C)c2ccccc21 [CyNA-599] |  | 105.9 | 805 | 819 | 0.07
